System: AGS cells
Test: Cell viability in AGS cells (CellTiter Glo2, 8-point dose response, 4 days)
Format: cell-based, human
Settings: not given
Description: AGS cells were treated with DMSO (no drug control) or each compound in Table 5 in an 8-point dose response for 4 days. Cell viability was measured using CellTiter Glo2. The IC50 of each compound was determined using CDD Vault.

IC50	SMILES
8.71 µM	CCC(=O)N1CCc2cc(-c3ccc(C(=O)NCc4cccnc4)cc3OC)ccc21 [Compound I-94, 3-methoxy-4-(1-propionylindolin-5-yl)-N-(pyridin-3-ylmethyl)benzamide]
0.384 µM	CCC(=O)N1CCc2cc(-c3ccc(C(=O)NCc4ccc(C)nc4C)cc3)ccc21 [Compound I-60, N-((2,6-dimethylpyridin-3-yl)methyl)-4-(1-propionylindolin-5-yl)benzamide]
3.66 µM	CCC(=O)N1CCc2cc(-c3ccc(C(=O)NCc4cccnc4)nc3)ccc21 [Compound I-55, 5-(1-propionylindolin-5-yl)-N-(pyridin-3-ylmethyl)picolinamide]

Same assay, conditions: Homo sapiens, AGS, 96 h

SMILES	IC50
CCC(=O)N1CCc2cc(-c3ccc(C(=O)NCC4CCCNC4)cc3)ccc21 (stereo not drawn) [Compound I-63, N-(piperidin-3-ylmethyl)-4-(1-propionylindolin-5-yl)benzamide]	> 30 µM
CCC(=O)n1ccc2cc(-c3ccc(C(=O)NCc4cccnc4)cc3)ccc21 [Compound I-90, 4-(1-propionyl-1H-indol-5-yl)-N-(pyridin-3-ylmethyl)benzamide]	> 13.3 µM
CCC(=O)N(C)c1ccc(-c2ccc(C(=O)NCc3cncc(F)c3)cc2)cc1 [Compound I-234]	> 30 µM
CCC(=O)N1CCc2cc(-c3ccc(C(=O)NCc4ccccc4)cc3)ccc21 [Compound I-152]	> 30 µM
CCC(=O)N1CCc2cc(-c3ccc(C(=O)NC(C)c4ccccc4)cc3)ccc21 (stereo not drawn) [Compound I-160]	> 30 µM
CCC(=O)N1CCc2cc(-c3ccc(C(=O)NCc4ccc(OC)cc4)cc3)ccc21 [Compound I-156]	> 30 µM
CCC(=O)N1CCc2cc(-c3ccc(C(=O)NCc4ccc(C)nc4)cc3)ccc21 [Compound I-59, N-((6-methylpyridin-3-yl)methyl)-4-(1-propionylindolin-5-yl) benzamide]	> 30 µM
CCC(=O)N1CCc2cc(-c3ncc(C(=O)NCc4cccnc4)cn3)ccc21 [Compound I-66, 2-(1-propionylindolin-5-yl)-N-(pyridin-3-ylmethyl) pyrimidine-5-carboxamide]	> 30 µM
CCC(=O)N1CCc2cc(-c3ccc(C(=O)NCC4CCCC4)cc3)ccc21 [Compound I-207]	> 100 µM
CCC(=O)N1CCc2cc(-c3ccc(C(=O)NCC4CCOCC4)cc3)ccc21 [Compound I-191, 4-(1-propionylindolin-5-yl)-N-((tetrahydro-2H-pyran-4-yl)methyl)benzamide]	> 30 µM
CCC(=O)N(C)c1ccc(-c2ccc(C(=O)NCc3cncs3)cc2)cc1 [Compound I-235]	> 30 µM
CCC(=O)N1CCc2cc(N3CC(C(=O)NCc4cccnc4)C3)ccc21 [Compound I-209, 1-(1-propionylindolin-5-yl)-N-(pyridin-3-ylmethyl)azetidine-3-carboxamide]	> 30 µM
CCC(=O)N1CCc2cc(-c3ccc(C(=O)NCC4CCCCC4)cc3)ccc21 [Compound I-186, N-(cyclohexylmethyl)-4-(1-propionylindolin-5-yl)benzamide]	> 30 µM
CCC(=O)N1CCc2cc(-c3ccc(C(=O)NCc4ccco4)cc3)ccc21 [Compound I-181]	> 30 µM
CCC(=O)N1CCc2cc(-c3ccc(C(=O)NCc4ccc(F)cc4)cc3)ccc21 [Compound I-179]	> 30 µM
CCC(=O)Nc1ccc(-c2ccc(C(=O)NCc3cccnc3)cc2)cc1 [Compound I-44, 4′-propionamido-N-(pyridin-3-ylmethyl)-[1,1′-biphenyl]-4-Carboxamide]	> 30 µM
CCOc1ccc(CNC(=O)c2ccc(-c3ccc4c(c3)CCN4C(=O)CC)cc2)cc1 [Compound I-180]	> 30 µM
CCC(=O)N1CCc2cc(-c3ccc(C(=O)NCc4cccnn4)cc3)ccc21 [Compound I-197, 4-(1-propionylindolin-5-yl)-N-(pyridazin-3-ylmethyl)benzamide]	25.2 µM
CCC(=O)N1CCc2cc(-c3ccc(C(=O)NCC4CCCO4)cc3)ccc21 (stereo not drawn) [Compound I-178]	> 30 µM
CCC(=O)N(C)c1ccc(-c2ccc(C(=O)NCc3ccccc3)cc2)cc1 [Compound I-239]	> 30 µM
CCC(=O)N1CCc2cc(-c3ccc(C(=O)NCc4cccnc4)cc3OC)ccc21 [Compound I-94, 3-methoxy-4-(1-propionylindolin-5-yl)-N-(pyridin-3-ylmethyl)benzamide]	7.86 µM
CCC(=O)N1CCc2cc(-c3ccc(C(=O)NCc4cccnc4C)cc3)ccc21 [Compound I-61, N-((2-methylpyridin-3-yl)methyl)-4-(1-propionylindolin-5-yl)benzamide]	> 30 µM
CCC(=O)N(C)c1ccc(-c2ccc(C(=O)NCc3cnccc3C)cc2)cc1 [Compound I-238]	> 30 µM
CCC(=O)N1CCc2cc(-c3ccc(C(=O)NCc4cccc(F)c4)cc3)ccc21 [Compound I-174]	> 30 µM

Continued by falling IC50, values first:

IC50	SMILES
7.68 µM	CCC(=O)n1ncc2cc(-c3ccc(C(=O)NCc4cccnc4)cc3)ccc21 [Compound I-56, 4-(1-propionyl-1H-indazol-5-yl)-N-(pyridin-3-ylmethyl)benzamide]
6.69 µM	CCC(=O)N(C)c1ccc(-c2ccc(C(=O)NCc3cncc(C)c3)cc2)cc1 [Compound I-237]
6.61 µM	CCC(=O)N1CCc2cc(-c3ccc(C(=O)Nc4cccnc4)cc3)ccc21 [Compound I-74]
5.14 µM	CC(=O)N1CCc2cc(-c3ccc(C(=O)NCc4ccccn4)cc3)ccc21 [Compound I-175]
4.57 µM	CCCC(=O)N(C)c1ccc(-c2ccc(C(=O)NCc3cccnc3)cc2)cc1 [Compound I-230, 4′-(N-methylbutyramido)-N-(pyridin-3-ylmethyl)-[1,1′-biphenyl]-4-carboxamide]
3.83 µM	CC(=O)N1CCc2cc(-c3ccc(C(=O)NCc4cccnc4)cc3)ccc21 [Compound I-42, 4-(1-acetylindolin-5-yl)-N-(pyridin-3-ylmethyl) benzamide]
3.59 µM	CCC(=O)N(C)c1ccc(-c2ccc(C(=O)NCc3cccnc3)cc2)cc1OC [Compound I-248, 3′-methoxy-4′-(N-methylpropionamido)-N-(pyridin-3-ylmethyl)-[1,1′-biphenyl]-4-carboxamide]
3.48 µM	CCC(=O)N1CCc2c1ccc(-c1ccc(C(=O)NCc3cccnc3)cc1)c2F [Compound I-213]
3.17 µM	CCC(=O)N1CCc2cc(-c3ccc(C(=O)NCc4cccnc4)cc3F)ccc21 [Compound I-97, 3-fluoro-4-(1-propionylindolin-5-yl)-N-(pyridin-3-ylmethyl) benzamide]
3.02 µM	CCC(=O)N1CCc2cc(-c3ccc(C(=O)NCc4cccnc4)c(O)c3)ccc21 [Compound I-210]
2.89 µM	CCC(=O)N1CCc2cc(-c3ccc(C(=O)NCc4cccnc4)nc3)ccc21 [Compound I-55, 5-(1-propionylindolin-5-yl)-N-(pyridin-3-ylmethyl)picolinamide]
2.44 µM	CC(=O)N(C)c1ccc(-c2ccc(C(=O)NCc3cccnc3)cc2)cc1C [Compound I-216]
1.87 µM	CC(C)C(=O)N(C)c1ccc(-c2ccc(C(=O)NCc3cccnc3)cc2)cc1 [Compound I-250]
1.82 µM	CCC(=O)N(C)c1ccc(-c2ccc(C(=O)NCc3cccnc3)cc2)cc1C [Compound I-215, 3′-methyl-4′-(N-methylpropionamido)-N-(pyridin-3-ylmethyl)-[1,1′-biphenyl]-4-carboxamide]
1.35 µM	CCC(=O)N1CCc2cc(-c3ccc(C(=O)NCc4cccnc4)cc3)c(Cl)cc21 [Compound I-212]
1.16 µM	CCC(=O)N1CCc2cc(-c3ccc(C(=O)NCc4cccnc4)cc3)c(F)cc21 [Compound I-211]
0.607 µM	CCC(=O)N(C)c1ccc(-c2ccc(C(=O)NCc3ccc(C)nc3C)cc2)cc1 [Compound I-221]
0.344 µM	CCC(=O)N1CCc2cc(-c3ccc(C(=O)NCc4ccc(C)nc4C)cc3)ccc21 [Compound I-60, N-((2,6-dimethylpyridin-3-yl)methyl)-4-(1-propionylindolin-5-yl)benzamide]
